Columns and labels:
[1] = system: patients suffering from acne; assay: Multi-centre, randomized, double-blind clinical study of adapalene + BPO topical gel versus monads and vehicle; format: in vivo; settings: adapalene 0.1%, BPO 2.5%; for Reduction in lesions (all lesions): 12 weeks, gels once a day, rounded values of the text; for Degree of success (percentage of patients clear or almost clear): week 12, ITT (LOCF), gels once a day for 12 weeks
Method: A clinical study for confirmation of efficacy was performed for a topical gel combining adapalene+benzoyl peroxide (BPO). This gel has the following formulation (expressed as % weight/total weight): [table] Protocol: The clinical study was a multi-centre, randomized, double-blind study in parallel groups, to evaluate the tolerance and the efficacy of the above formulation, in comparison with its own individual active substances placed at the same doses in gels of the same formula as that of the fixed combination (individual formulae referred to as “monads”) and in comparison with the gel vehicle (placebo formula): adapalene gel (0.1%), BPO gel (2.5%) and vehicle gel. All the treatments were applied once a day for 12 weeks, to 517 patients suffering from acne. The main efficacy criteria were: the degree of success, defined as the percentage of patients considered as being “clear”, i.e., the patient has no more acne lesions (neither comedones nor inflammatory lesions), reflecting an improvement in the patient's clinical condition, or “almost clear” on the evaluation scale; the reduction of the percentage of inflammatory and non-inflammatory lesions after 12 weeks of treatment.

TPA-induced ear edema = assay: Anti-inflammatory evaluation in TPA-induced ear edema model; format: in vivo, Balb/c mice; settings: single topical application, T+6 hours
Method: Evaluation of the Anti-Inflammatory in Ear Edema Model on Balb/c Mice
The study was carried out with […] ([…]) female 9 weeks aged Balb/c ByJlc mice.
The Edema was induced by a single application of 20 μl of TPA dissolved in acetone at 0.01%.
The treatment was administrated by single topical application of tested compounds dissolved in TPA at 0.01% (groups 3, 4, 5, 6 and 7) and dissolved in TPA 0.01%+BPO (groups 8, 9 and 10).
The treatments activity was measured by inflammation evaluation with ear thickness at T+6 hours.

Structure (SMILES)	Reduction in lesions (all lesions) [1] [%]	Degree of success (percentage of patients clear or almost clear) [1] [%]	Anti-inflammatory effect on TPA-induced ear edema (in words) (TPA-induced ear edema)
O=C(OOC(=O)c1ccccc1)c1ccccc1 [BPO, benzoyl peroxide]	36	15	slight anti-inflammatory effect
COc1ccc(-c2ccc3cc(C(=O)O)ccc3c2)cc1C12CC3CC(CC(C3)C1)C2 [Adapalene, 6-[3-(1-Adamantyl)-4-methoxyphenyl]-2-naphthoic acid]	35	16	low anti-inflammatory effect

From patent publication US20120115947A1, “COMBINATION/ASSOCIATION OF ADAPALENE AND BENZOYL PEROXIDE FOR TREATING ACNE LESIONS” (Galderma Research & Development, priority 2006, published 2012)
